From patent US8481522B2, “Platinum-N-heterocyclic carbene derivatives, preparation thereof and therapeutic use thereof” (Sanofi, priority 2008, dated 2013)
Where “and” joins values, the source holds several entries; their conditions need not be identical. Identical values can stand only once.

How the values were obtained:
H460 = experiment: Cytotoxicity, adherent cells, 14C-thymidine incorporation (cell proliferation); format: cell-based; conditions: NCI-H460 human non-small cell lung cancer, 96 h treatment
Description: NCI-H460 is a human non-small cell lung cancer which has a mutation in the K-ras gene. This cell is sensitive to platinum compounds. In this cell line, cisplatin forms more adducts than oxaliplatin at the same concentration and yet the percentage repair is higher for oxaliplatin (DNA Repair 2006, 5: 219-225).
Cell proliferation is evaluated by the incorporation of ^14C-thymidine into the DNA of the cells. A549, CH1, CH1/DDP and H460 are cultured in Dulbecco's modified Eagle's medium (DMEM), SK-OV-3 in Mc-Coy medium, A2780 and A2780/DDP in RPMI1640 medium. All the media contain 10% foetal calf serum, 2 mM L-glutamine, 100 units/ml of penicillin and […] of streptomycin. The incubation is performed at 37° C. in a 95% air/5% CO2 atmosphere.
The cells, at the exponential growth phase, are introduced into the wells of a Cytostar 96-well plate, containing a scintillation fluid (Cytostar-T scintillating microplate, GE Healthcare Bio-Sciences AB, Uppsala, Sweden), at the density of 5×10^3 to 10^4 cells per well, in an amount of 180 μl per well. After incubating for 4 hours, the test compounds are added. The compounds are prepared beforehand as a stock solution at the concentration of 10 mM in DMSO. A serial dilution is performed before the compounds are brought into contact with the cells in a volume of 10 μl. After incubating for 72 hours at 37° C. in an atmosphere of 95% air/5% CO2, 0.1 μCi/well of ^14C-thymidine is added. 24 h later (total 96 h of treatment), the incorporation of ^14C-thymidine is recorded on a suitable scintillation counter (MicroBeta radioactivity counting, Perkin-Elmer Life Sciences, Boston, Mass., USA). The mean values obtained in the experimental groups are divided by the mean values obtained in the control groups in order to obtain percentages relative to the controls.
(§1) The IC50 values are evaluated from curves presenting the percentage viability as a function of the concentration of the test compound, using the Biostat speed software. The IC50 is defined as the concentration of the compound which inhibits 50% of the cell proliferation or 50% of the cell viability.

CCRF-CEM cells = experiment: Cytotoxicity, non-adherent CCRF-CEM cells, CellTiter-Glo luminescent cell viability; format: cell-based; conditions: CCRF-CEM human T leukaemia, 96 h incubation
Description: CCRF-CEM is a human T leukaemia (Cancer 1965, 18: 522-529). Oxaliplatin induces bifunctional lesions such as inter- and intra-DNA strand adducts on these CCRF-CEM cells (Mol Pharmacol 2000, 58: 920-927). […] This deficiency makes these cells particularly […] to alkylating agents and to platinum compounds.
For the non-adherent CCRF-CEM cells, the cell viability is measured by the luminescence test CellTiter-Glo® Luminescent Cell Viability Assay (Promega, Madison, Wis., USA). When it is added to the cells, the reagent produces a luminescence in the presence of the ATP of the living cells. The results are evaluated on a suitable reader (Envision, Perkin-Elmer Life Sciences, Boston, Mass., USA).
The CCRF-CEM cells are cultured in RPMI1640 medium containing 10% foetal calf serum, 2 mM L-glutamine, 100 units/ml of penicillin and […] of streptomycin, at 37° C. in a 95% air/5% CO2 atmosphere. The cells, at the exponential growth phase, are introduced into the wells of a 96-well plate at the density of 5×10^3 cells per well in an opaque plate (Greiner), in a volume of 150 μl. After incubating for 4 h at 37° C. in a 95% air/5% CO2 atmosphere, the compounds (concentrated 20-fold) are added in a volume of 8 μl. The compounds are prepared beforehand as a stock solution at the concentration of 10 mM in DMSO. A serial dilution is performed before the compounds are brought into contact with the cells. After incubating for 96 h at 37° C., 100 μl of agents (CellTiter-Glo) are added. After lysing the cells, the release of ATP is evaluated on the Envision reader.
as §1

| Compound | IC50 (H460) | IC50 (CCRF-CEM cells) |
| --- | --- | --- |
| trans-diiodo(N-cyclohexylamine)[3-benzyl-1-methyl-4-phenylimidazol-2-ylidene]platinum(II) [Example 21] | 1900 nM | 900 nM |
| C[n+]1c(-c2ccccc2)c(-c2ccccc2)n(Cc2ccccc2)[c]1[Pt-2]([I])([I])[NH2+]C1CCCCC1 [Example 26, trans-diiodo(N-cyclohexylamine)[3-benzyl-4,5-diphenyl-1-methyl-imidazol-2-ylidene]platinum (II)] | 2900 nM | 1200 nM |
| Cn1ccn(Cc2ccc(C(F)(F)F)cc2)[c]1=[Pt-]([Br])([Br])[NH2+]C1CCCCC1 [Example 38, trans-dibromo(N-cyclohexylamine)[1-methyl-3-(4-trifluoromethyl-benzyl)imidazol-2-ylidene]platinum(II)] | 3000 nM | 2200 nM |
| Cn1ccn(C)[c]1=[Pt-]([I])([I])[NH2+]C1CC2CCC1C2 (single isomer, unassigned) [Example 24, trans-diiodo(N-exo(−)bicyclo[2.2.1]heptylamine)(1,3-dimethylimidazol-2-ylidene)platinum(II)] | 2100 nM | 900 nM |
| trans-diiodo(N-cyclohexylamine)(1-methyl-3-phenyl-1,2,4-triazol-5-ylidene)platinum(II) [Example 19] | 2300 nM | 1000 nM |
| Cn1ccn(C)[c]1=[Pt-]([I])([I])[NH2+]C1CC2CCC1C2 (racemic) [Example 6, trans-diiodo(N-exo(+/−)bicyclo[2.2.1]heptylamine)(1,3-dimethyl-imidazol-2-ylidene)platinum(II)] | 2800 nM | 1700 nM |
| Cn1ccn(C)[c]1=[Pt-]([I])([I])[NH2+]Cc1ccc(C(F)(F)F)cc1 [Example 14, trans-diiodo[N-4-(trifluoromethyl)benzylamine](1,3-dimethylimidazol-2-ylidene)platinum(II)] | 2600 nM | 1700 nM |
| Cn1ccn(Cc2ccc(C(F)(F)F)cc2)[c]1=[Pt-]([I])([I])[NH+]1CCOCC1 [Example 36, trans-diiodo(N-morpholine)(1-methyl-3-(4-trifluoromethylbenzyl)-imidazol-2-ylidene)platinum(II)] | 900 nM | 600 nM |
| Cn1c(=O)c2c(n(C)c1=O)n(C)[c](=[Pt]([I])([I])[NH]C1CC3CCC1C3)n2C (racemic) [Example 25, trans-diiodo(N-exo(+/−)bicyclo[2.2.1]heptylamine) (1,3,7,9-tetramethylxanthin-8-ylidene)platinum(II)] | 1500 nM | 1000 nM |
| CN1CCC([NH2+][Pt-]([I])([I])=[c]2n(C)ccn2Cc2ccccc2)CC1 [Example 27, trans-diiodo[N-(1-methylpiperidin-4-ylamine)](1-methyl-3-benzyl-imidazol-2-ylidene)platinum(II)] | 1700 nM | 1600 nM |
| Cn1ccn(Cc2ccc(C(F)(F)F)cc2)[c]1=[Pt-]([NH2+]C1CCCCC1)([O][N+](=O)[O-])[O][N+](=O)[O-] [Example 34, trans-dinitrato(N-cyclohexylamine)[1-methyl-3-(4-trifluoromethyl-benzyl)imidazol-2-ylidene]platinum(II)] | 3100 nM | 1400 nM |
| Cn1cnn(C)[c]1=[Pt]([I])([I])[NH]C1CCCCC1 [Example 2, trans-diiodo(N-cyclohexylamine)(1,4-dimethyl-1,2,4-triazol-5-ylidene)platinum(II)] | 2500 nM | 1500 nM |
| C[n+]1ccn(Cc2cccc(C(F)(F)F)c2)[c]1[Pt-2]([I])([I])[NH2+]C1CCCCC1 [Example 33, trans-diiodo(N-cyclohexylamine)[1-methyl-3-(3-trifluoromethylbenzyl)imidazol-2-ylidene]platinum(II)] | 800 nM | 700 nM |
| [I][Pt-]([I])([NH2+]C1CCCCC1)=[c]1n(C2CCCCC2)ccn1C1CCCCC1 [Example 18, trans-diiodo(N-cyclohexylamine)(1,3-dicyclohexylimidazol-2-ylidene)platinum(II)] | 2700 nM | 1400 nM |
| CCC(CC)[NH2+][Pt-]([I])([I])=[c]1n(C)ccn1Cc1ccccc1 [Example 28, trans-diiodo(N-pentan-3-ylamine)(1-methyl-3-benzylimidazol-2-ylidene)platinum(II)] | 1600 nM | 1400 nM |
| Cn1ccn(Cc2ccccc2)[c]1=[Pt-]([I])([I])[NH2+]C1CCCC1 [Example 30, trans-diiodo(N-cyclopentylamine)(1-methyl-3-benzylimidazol-2-ylidene)platinum(II)] | 1300 nM | 1100 nM |
| Cn1ccn(C)[c]1=[Pt-]([I])([I])[NH2+]C1CC2CCC1C2 (single isomer, unassigned) [Example 23, trans-diiodo(N-exo(+)bicyclo[2.2.1]heptylamine)(1,3-dimethylimidazol-2-ylidene)platinum(II)] | 2300 nM | 1600 nM |
| Cn1c(-c2ccccc2)c(-c2ccccc2)n(C)[c]1=[Pt]([I])([I])[NH]C1CCCCC1 [Example 22, trans-diiodo(N-cyclohexylamine)[1,3-dimethyl-4,5-diphenylimidazol-2-ylidene]platinum(II)] | 1800 nM | 1200 nM |
| Cn1ccn(C)[c]1=[Pt-]([I])([I])[NH2+]C1CCCCC1 [Example 1, trans-diiodo(N-cyclohexylamine)(1,3-dimethylimidazol-2-ylidene)platinum(II)] | 5400 nM and 3000 nM | 2800 nM and 1900 nM |
| CC(C)(C)[n+]1ccn(Cc2ccccc2)[c]1[Pt-2]([I])([I])[n+]1ccccc1 [Reference product, trans-diiodo(pyridine)(1-benzyl-3-tert-butylimidazol-2-ylidene)platinum(II), reference compound] | 4400 nM | 3900 nM |
| Cn1ccn(-c2ccccc2)[c]1=[Pt-]([I])([I])[NH2+]C1CCCCC1 [Example 4, trans-diiodo(N-cyclohexylamine)(1-methyl-3-phenylimidazol-2-ylidene)platinum(II)] | 2300 nM | 1500 nM |
| Cn1[c](=[Pt]([I])([I])[NH]C2CCCCC2)n(C)c2ccccc21 [Example 8, trans-diiodo(N-cyclohexylamine)(1,3-dimethylbenzimidazol-2-ylidene)platinum(II)] | 1900 nM | 3100 nM |
| Cn1ccn(Cc2ccccc2)[c]1=[Pt-]([I])([I])[NH2+]C1CCOCC1 [Example 29, trans-diiodo(N-4-aminotetrahydropyran)(1-methyl-3-benzylimidazol-2-ylidene)platinum(II)] | 900 nM | 500 nM |
| C=Cn1ccn(C)[c]1=[Pt-]([I])([I])[NH2+]C1CCCCC1 [Example 15, trans-diiodo(N-cyclohexylamine)[1-methyl-3-vinylimidazol-2-ylidene]platinum(II)] | 3800 nM | 2100 nM |
| Cn1cc[n+](Cc2ccc(C(F)(F)F)cc2)[c]1[Pt-2]([I])([I])[NH2+]C1CCOCC1 [Example 37, trans-diiodo(N-tetrahydropyran-4-ylamine)(1-methyl-3-(4-trifluoro-methylbenzyl)imidazol-2-ylidene)platinum(II)] | 1400 nM | 900 nM |
| Cn1ccn(C)[c]1=[Pt-]([I])([I])[NH2+]Cc1ccccc1 [Example 13, trans-diiodo(N-benzylamine)(1,3-dimethylimidazol-2-ylidene)-platinum(II)] | 3000 nM | 1700 nM |
